# Experimental data published in US11066414B2, “Cot modulators and methods of use thereof” (Gilead Sciences, Inc., priority 2015, dated 2021).
# pEC50, pIC50: −log10 of the molar value. Where two headings read alike, the source gives them in different places.
# Key:
# [1] = target: Human Cot (Homo sapiens (Human), UniProt P41279); test: High Throughput Cot Biochemical Assay
# [2] = tested on: TNFα; test: Cot Monocyte TNFα Cell Based Assay
# [3] = IC50 HTRF, Cot HTRF (TR-FRET KinEASE) biochemical assay, 400 μM ATP
# [4] = Homo sapiens, Monocyte, read-out: EC50 TNF, LPS-stimulated human monocytes, TNFα TR-FRET
# [5] = read-out: IC50 HTRF, Cot HTRF (TR-FRET KinEASE) biochemical assay, 400 μM ATP
# [6] = read-out: EC50 TNF, LPS-stimulated human monocytes, TNFα TR-FRET
# [7] = IC50 HTRF, Cot HTRF (TR-FRET) biochemical assay
# [8] = Homo sapiens, Monocyte, read-out: EC50 TNF, LPS-stimulated human monocytes, TNFα
# Sequence of Human Cot (P41279 30-397): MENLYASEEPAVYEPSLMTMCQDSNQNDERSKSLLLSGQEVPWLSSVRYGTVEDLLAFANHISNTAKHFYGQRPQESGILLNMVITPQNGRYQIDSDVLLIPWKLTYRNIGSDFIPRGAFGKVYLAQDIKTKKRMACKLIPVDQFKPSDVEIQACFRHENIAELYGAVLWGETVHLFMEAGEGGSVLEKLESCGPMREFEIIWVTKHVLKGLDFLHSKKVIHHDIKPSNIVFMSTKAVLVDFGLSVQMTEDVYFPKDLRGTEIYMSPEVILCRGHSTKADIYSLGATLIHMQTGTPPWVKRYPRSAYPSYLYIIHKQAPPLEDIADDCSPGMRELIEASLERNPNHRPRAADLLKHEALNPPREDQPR
"pIC50 [1, 3]","pEC50 [2, 4]","pIC50 [1, 7]","pEC50 [2, 8]",Compound,further results
8.70,7.03,,,"COc1c([C@@H](Nc2cc(Cl)c3ncc(C#N)c(NCC(C)(C)C)c3c2)c2ccc(F)nc2C)nnn1C12CC(C1)C2 [Example 968, (S)-6-(((1-(bicyclo[1.1.1]pentan-1-yl)-5-methoxy-1H-1,2,3-triazol-4-yl)(6-fluoro-2-methylpyridin-3-yl)methyl)amino)-8-chloro-4-(neopentylamino)quinoline-3-carbonitrile]",
,,,,"Cn1ccc2c([C@H](Nc3cc(C#N)c4ncc(C#N)c(NCC(C)(C)C)c4c3)c3cn(C(CF)CF)nn3)cccc2c1=O [Example 880, (S)-6-(((1-(l,3-difluoropropan-2-yl)-1H-1,2,3-triazol-4-yl)(2-methyl-1-oxo-1,2-dihydroisoquinolin-5-yl)methyl)amino)-4-(neopentylamino)quinoline-3,8-dicarbonitrile]","pIC50 [1, 5]: 8.52; pEC50 [2, 6]: 7.10"
,,8.22,6.71,"[2H]C(Nc1cc(Cl)c2ncc(C#N)c(N[C@H](CC)c3ccccc3)c2c1)(c1cn(C2CC2)nn1)c1cc(C#N)cs1 (stereo partly drawn) [Example 123, 8-chloro-6-(((4-cyanothiophen-2-yl)(1-cyclopropyl-1H-1,2,3-triazol-4-yl)methyl-d)amino)-4-(((R)-1-phenylpropyl)amino)quinoline-3-carbonitrile]",
,,8.70,7.57,"CCc1ncccc1[C@H](Nc1cc(C#N)c2ncc(C#N)c(NCC(C)(C)C)c2c1)c1cn(C2(C(F)F)CC2)nn1 [Example 606, (S)-6-(((1-{1-(difluoromethyl)-cyclopropyl)-1H-1,2,3-triazol-4-yl)(2-ethylpyridin-3-yl)methyl)amino)-4-(neopentylamino)quinoline-3,8-dicarbonitrile]",
7.96,6.52,,,"COc1c(C(Nc2cc(Cl)c3ncc(C#N)c(NCC(C)(C)C)c3c2)c2ccc(F)nc2C)nnn1C (stereo not shown) [Example 971, 8-chloro-6-(((6-fluoro-2-methylpyridin-3-yl)(5-methoxy-1-methyl-1H-1,2,3-triazol-4-yl)methyl)amino)-4-(neopentylamino)quinoline-3-carbonitrile]",
7.48,6.30,,,"COc1ccc2c([C@H](Nc3cc(Cl)c4ncc(C#N)c(NCC(C)(C)C)c4c3)c3cn(C4(C(F)(F)F)CC4)nn3)cccc2n1 [Example 930, (S)-8-chloro-6-(((2-methoxyquinolin-5-yl)(1-(1-(trifluoromethyl)cyclopropyl)-1H-1,2,3-triazol-4-yl)methyl)amino)-4-(neopentylamino)quinoline-3-carbonitrile]",
,,8.00,6.67,"CC(C)(C)N1CCC(n2cc([C@@H](Nc3cc(Cl)c4ncc(C#N)c(Nc5ccc(F)c(Cl)c5)c4c3)c3ccc4scnc4c3)nn2)CC1 [Example 62, (S)-6-((benzo[d]thiazol-5-yl(1-(1-(tert-butyl)piperidin-4-yl)-1H-1,2,3-triazol-4-yl)methyl)amino)-8-chloro-4-((3-chloro-4-fluorophenyl)amino)quinoline-3-carbonitrile]",
,,,,"COc1nccc2c([C@H](Nc3cc(Cl)c4ncc(C#N)c(NCC(C)(C)C(F)(F)F)c4c3)c3cn(C4(C(F)F)CC4)nn3)cccc12 [Example 934, (S)-8-chloro-6-(((1-(1-(difluoromethyl)cyclopropyl)-1H-1,2,3-triazol-4-yl)(1-methoxylsoquinolin-5-yl)methyl)amino)-4-((3,3,3-trifluoro-2,2-dimethylpropyl)amino)quinoline-3-carbonitrile]","pIC50 [1, 5]: 8.15; pEC50 [2, 6]: 7.09"
8.15,7.07,,,"CC(C)(CNc1c(C#N)cnc2c(Cl)cc(N[C@H](c3cn(C4(C(F)F)CC4)nn3)c3cccc4ncccc34)cc12)C(F)(F)F [Example 940, (S)-8-chloro-6-(((1-(1-(difluoromethyl)cyclopropyl)-1H-1,2,3-triazol-4-yl)(quinolin-5-yl)methyl)amino)-4-((3,3,3-trifluoro-2,2-dimethylpropyl)amino)quinoline-3-carbonitrile]",
8.52,7.39,,,"Cc1nc(F)ccc1[C@H](Nc1cc(Cl)c2ncc(C#N)c(NCC(C)(C)C(F)(F)F)c2c1)c1nnn(C2(C)CC2)c1F [Example 959, (S)-8-chloro-6-(((5-fluoro-1-(1-methylcyclopropyl)-1H-1,2,3-triazol-4-yl)(6-fluoro-2-methylpyridin-3-yl)methyl)amino)-4-((3,3,3-trifluoro-2,2-dimethylpropyl)amino)quinoline-3-carbonitrile]",
8.40,7.29,,,"Cc1nc(F)ccc1[C@H](Nc1cc(Cl)c2ncc(C#N)c(NCC(C)(C)C)c2c1)c1nnn(C)c1F [Example 963, (S)-8-chloro-6-(((5-fluoro-1-methyl-1H-1,2,3-triazol-4-yl)(6-fluoro-2-methylpyridin-3-yl)methyl)amino)-4-(neopentylamino)quinoline-3-carbonitrile]",
8.05,6.86,,,"CC(C)(C)CNc1c(C#N)cnc2c(Cl)cc(N[C@H](c3cn(C(CF)CF)nn3)c3cccc4ncccc34)cc12 [Example 804, (S)-8-chloro-6-(((1-(1,3-difluoropropan-2-yl)-1H-1,2,3-triazol-4-yl)(quinolin-5-yl)methyl)amino)-4-(neopentylamino)quinoline-3-carbonitrile]",
,,6.95,6.00,"CC(C)(C)CNc1c(C#N)cnc2c(C#N)cc(N[C@@H](c3cn(C4CC4)nn3)c3cccc4ncsc34)cc12 [Example 410, (R)-6-((benzo[d]thiazol-7-yl(1-cyclopropyl-1H-1,2,3-triazol-4-yl)methyl)amino)-4-(neopentyl-amino)quinoline-3,8-dicarbonitrile]",
8.70,7.74,,,"Cn1ccc2c([C@H](Nc3cc(C#N)c4ncc(C#N)c(NCC(C)(C)C(F)(F)F)c4c3)c3cn(C4(C5CC5)CC4)nn3)cccc2c1=O [Example 882, (S)-6-(((1-([1,1′-bi(cyclopropan)]-1-yl)-1H-1,2,3-triazol-4-yl)(2-methyl-1-oxo-1,2-dihydroisoquinolin-5-yl)methyl)amino)-4-((3,3,3-trifluoro-2,2-dimethylpropyl)amino)quinoline-3,8-dicarbonitrile]",
,,8.30,6.83,"CC(C)(C)CNc1c(C#N)cnc2c(C#N)cc(N[C@H](c3cn(C4(C(F)(F)F)CC4)nn3)c3ccc(C#N)c4ncccc34)cc12 [Example 710, (S)-6-(((8-cyanoquinolin-5-yl)(1-(1-(trifluoromethyl)cyclopropyl)-1H-1,2,3-triazol-4-yl)methyl)amino)-4-(neopentylamino)quinoline-3,8-dicarbonitrile]",
,,,,Cc1scnc1[C@H](Nc1cc(C#N)c2ncc(C#N)c(NCC(C)(C)C)c2c1)c1cn(C2(C(F)F)CC2)nn1 [Example 641],"pIC50 ([1]; read-out: IC50 HTRF, Cot HTRF (TR-FRET) biochemical assay): 7.26; pEC50 ([2]; read-out: EC50 TNF, LPS-stimulated human monocytes, TNFα): 6.09"
,,6.91,6.03,"Cn1cnc2c([C@H](Nc3cc(Cl)c4ncc(C#N)c(NCC(C)(C)C)c4c3)c3cn(C4(C(F)(F)F)CC4)nn3)cccc21 [Example 520, (S)-8-chloro-6-(((1-methyl-1H-benzo[d]imidazol-4-yl)(1-(1-(trifluoromethyl)cyclopropyl)-1H-1,2,3-triazol-4-yl)methyl)amino)-4-(neopentylamino)quinoline-3-carbonitrile]",
